Assays:
[1] = tested on: CT26 murine colon carcinoma; experiment: CT26 murine colon carcinoma model in female BALB/c mice; type: in vivo, mouse
Description: Example 4: Study to Determine the Efficacy of Compound 4 in a CT26 Murine Colon Carcinoma Model Using Female BALB/c Mice
The animals were fed ad libitum water (reverse osmosis, 1 ppm Cl) and a NIH 31 Modified and Irradiated Lab Diet consisting of 18.0% crude protein, 5.0% crude fat, and 5.0% crude fiber.
CT26 murine colon carcinoma cells were grown in RPMI-1640 medium containing 10% fetal bovine serum, 2 mM glutamine, 100 units/mL penicillin G sodium, 100 μg/mL streptomycin sulfate, and 25 μg/mL gentamicin. The cells were cultured in tissue culture flasks in a humidified incubator at 37° C., in an atmosphere of 5% CO2 and 95% air.
On the day of implantation, cultured CT26 cells were harvested during log phase growth and resuspended in phosphate buffered saline, pH 7.4 (PBS) at a concentration of 3×10^6 cells/mL. Each mouse was injected subcutaneously in the right flank with 3×10^5 tumor cells (0.1 mL cell suspension) and tumors were monitored as their volumes approached the target range of 80 to 120 mm^3. Eleven days after tumor cell implantation, on Day 1 of the study, animals were sorted into three groups (n=8/group) with individual tumor volumes of 63 to 126 mm^3, and a group mean tumor volume of 105 mm^3. Tumors were measured with a caliper twice weekly for the duration of the study. Tumor size was calculated using the formula:
[formula] wherein w is width and 1 is length, in mm, of a tumor. Tumor weight may be estimated with the assumption that 1 mg is equivalent to 1 mm^3 of tumor volume. Test Articles
Compound 4 was dissolved by adding the appropriate volume of sterile saline (vehicle) into each tube, vortexing, incubating at 37° C. for 2-5 minutes, followed by sonication, if needed. […] A fresh vial was prepared on each day of dosing.
On Day 1 of the study, three groups of BALB/c mice (n=8) began dosing according to the protocol in FIG. 20. Compound 4 and vehicle were administered intravenously (i.v.). Group 1 received vehicle on Days 1, 5, 9, and 14. Groups 2 and 3 received CMD 4 at 1 and 3 mg/kg, respectively, on Days 1, 5, 9, and 14.
The study endpoint was a tumor volume of 2000 mm^3 or Day 30, whichever came first. The study ended on Day 29. The study protocol specified a tumor growth delay assay based on the median time-to-endpoint (TTE) in a treated group versus the control group. Tumors were measured using calipers twice per week, and each animal was euthanized for tumor progression (TP) when its tumor reached the 2000 mm^3 volume endpoint. The TTE for each mouse was calculated with the following equation:
[formula] where b is the intercept and m is the slope of the line obtained by linear regression of a log-transformed tumor growth data set. The data set is comprised of the first observation that exceeded the study endpoint volume and the three consecutive observations that immediately preceded the attainment of the endpoint volume. […] In instances in which the log-transformed calculated TTE preceded the day prior to reaching endpoint or exceeded the day of reaching tumor volume endpoint, a linear interpolation was performed to approximate TTE.
On Day 29, MTV (n) was defined as the median tumor volume of the number of animals, n, that survived to the last day and whose tumors had not reached the volume endpoint. Any animal determined to have died from treatment-related (TR) causes was to be assigned a TTE value equal to the day of death. Any animal that died from non-treatment-related (NTR) causes was to be excluded from the analysis. Treatment outcome was evaluated from tumor growth delay (TGD), which was defined as the increase in the median TTE for a treatment group compared to the control group: TGD=T−C expressed in days, or as a percentage of the median TTE of the control group:
[formula] wherein T is the median TTE for a treatment group and C is the median TTE for the control group. Tumor Growth Inhibition (TGI) Analysis […]

[2] = target: T1, R71H-G230A-R293Q (HAQ) variant of hSTING (Homo sapiens, UniProt Q86WV6, G230A/H232R/R293Q/R71H); experiment: IRF/NF-kB reporter cells, STING HAQ variant; type: cell-based; settings: 20 hours
T1 construct: THP1-Dual-WT cells express STING-HAQ variant; endogenous in cells; host or cells: THP1-Dual-WT cells
T1 sequence (Q86WV6 whole entry R71H/G230A/H232R/R293Q): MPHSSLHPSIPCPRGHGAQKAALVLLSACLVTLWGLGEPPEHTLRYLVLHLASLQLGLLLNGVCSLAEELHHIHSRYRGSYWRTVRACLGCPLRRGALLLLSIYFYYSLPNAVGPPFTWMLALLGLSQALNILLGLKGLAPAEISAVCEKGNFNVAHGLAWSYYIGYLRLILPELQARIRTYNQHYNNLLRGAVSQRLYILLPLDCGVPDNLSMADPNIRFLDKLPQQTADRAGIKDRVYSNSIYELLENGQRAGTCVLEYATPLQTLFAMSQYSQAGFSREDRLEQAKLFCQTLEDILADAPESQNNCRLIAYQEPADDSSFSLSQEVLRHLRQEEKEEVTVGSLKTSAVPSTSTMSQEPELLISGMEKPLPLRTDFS
Description: (§1) FIG. 22 depicts cells stably expressing both or either one of the reporters to measure IRF and NF-kB activity were treated with a range of concentrations of compound 2 or DMSO control for 20 hours. IRF activity was assessed using QUANTI-luc to measure levels of Lucia and NF-kB activity was determined by measure SEAP levels at 620-655 nm. % induction was calculated from fold change in luminescence/absorbance compared to DMSO treated sample. EC50 values are generated by curve fit in Xlfit.
as §1, with “FIG. 24” for “FIG. 22”, “compound 3” for “compound 2”
as §1, with “FIG. 27” for “FIG. 22”, “compound 4” for “compound 2”
(§2) Cells grown in complete media were treated with various concentrations of a compound of the disclosure or DMSO control. […] After 20 h incubation, IRF activity was assessed using QUANTI-luc to measure levels of Lucia and NF-kB activity was determined by measure SEAP levels at 620-655 nm. % induction was calculated from fold change in luminescence/absorbance compared to DMSO treated sample. […]

wild type STING = target: T2, wild type STING (Homo sapiens, UniProt Q86WV6, H232R); experiment: IRF/NF-kB reporter cells, wild type STING; type: cell-based; settings: 20 hours
T2 construct: expressed in transfected cells; host or cells: THP1-Dual-KI-STING-R232 (made from THP-Dual-STING KO cells)
T2 sequence (Q86WV6 whole entry H232R): as the sequence (Q86WV6 whole entry R71H/G230A/H232R/R293Q) above, with H71R, A230G, Q293R counted along it
Description: as §1
as §1, with “FIG. 24” for “FIG. 22”, “compound 3” for “compound 2”
as §1, with “FIG. 27” for “FIG. 22”, “compound 4” for “compound 2”
as §2

In the case of `CCCCCCCCCCOc1ccc(C(=O)Oc2ccc(CSP3(=O)OC[C@H]4O[C@@H](n5cnc6c(N)ncnc65)[C@H](F)[C@@H]4OP(=O)(O)OC[C@H]4O[C@@H](n5ccc(=O)[nH]c5=O)[C@H](O3)[C@@H]4F)cc2)cc1` (some centres unmarked) [Compound 4], the “tumor growth compared to the vehicle” value ([1]; intravenously at 1 mg/kg and 3 mg/kg) is reported as “Tumor growth was slowed”, the “individual times to endpoint vs vehicle group” value ([1]; treatment groups 1 and 3 mg/kg i.v.) is reported as “took longer to reach the endpoint” and the “tumor growth inhibition compared to the vehicle group” value ([1]; treatment groups 1 and 3 mg/kg i.v., Days 1, 5, 9, 14, TGI on Day 18) is reported as “at least 89%”. The “time to reach the endpoint, longer than vehicle group” value ([1]; treatment groups 1 and 3 mg/kg i.v., Days 1, 5, 9, 14, endpoint tumor volume 2000 mm^3) was “at least 10 days”, the “tumor volume distribution on day 18 vs vehicle group” value ([1]; treatment groups 1 and 3 mg/kg i.v., day 18) was “significantly smaller tumor volumes” and the “percent of mice remaining (Kaplan-Meier) vs vehicle group” value ([1]; treatment groups 1 and 3 mg/kg i.v., day 21) was “greater percent of mice remaining”. For the same compound, the “activity against R71H-G230A-R293Q (HAQ) variant of hSTING” value [2] was “possess activity” and the “activity against wild type STING” value (wild type STING) was “possess activity”.
In the case of `N.N.Nc1ncnc2c1ncn2[C@@H]1O[C@@H]2COP(=O)(S)O[C@@H]3[C@H](F)[C@@H](COP(=O)(O)O[C@H]2[C@H]1F)O[C@H]3n1ccc(=O)[nH]c1=O` (some centres unmarked) [Compound 3], the “tumor growth compared to the vehicle” value ([1]; intravenously at 3 mg/kg) is reported as “Tumor growth was slowed”, the “activity against R71H-G230A-R293Q (HAQ) variant of hSTING” value [2] is reported as “possess activity” and the “activity against wild type STING” value (wild type STING) is reported as “possess activity”.
